Laboratory results from PubChem BioAssay AID1982 (Sanford-Burnham Center for Chemical Genomics, 2009).
Activity calls are given as the source filed them. No rule for the calls is given here.

Experiments:
Assay in all cases: kinase panel binding selectivity, selectivity assay, biochemical, KINOMEscan (AID 1982)
BIKE = details: KINOMEscan 353-kinase binding panel, qPCR, at 10 µM, active compounds read low
ACVR2A = details: KINOMEscan 353-kinase binding panel, qPCR, at 10 µM, active compounds read low
[1] = biological target: Tyrosine-protein kinase Lyn (Homo sapiens) (UniProt P07948); details: KINOMEscan 353-kinase binding panel, qPCR, at 10 µM, active compounds read low
MARK1 = details: KINOMEscan 353-kinase binding panel, qPCR, at 10 µM, active compounds read low
[2] = biological target: Mitogen-activated protein kinase kinase kinase 20 (Homo sapiens) (UniProt Q9NYL2); details: KINOMEscan 353-kinase binding panel, qPCR; ZAK; at 10 µM; active compounds read low
[3] = biological target: Ephrin type-A receptor 2 (Homo sapiens) (UniProt P29317); details: KINOMEscan 353-kinase binding panel, qPCR; EPHA2; at 10 µM; active compounds read low
MYLK2 = details: KINOMEscan 353-kinase binding panel, qPCR, at 10 µM, active compounds read low
[4] = biological target: Mitogen-activated protein kinase 3 (Homo sapiens) (UniProt P27361); details: KINOMEscan 353-kinase binding panel, qPCR; ERK1; at 10 µM; active compounds read low
[5] = biological target: cGMP-dependent protein kinase 1 (Homo sapiens) (UniProt Q13976); details: KINOMEscan 353-kinase binding panel, qPCR; PRKG1; at 10 µM; active compounds read low
[6] = biological target: Cyclin-dependent kinase 5 (Homo sapiens) (UniProt Q00535); details: KINOMEscan 353-kinase binding panel, qPCR; CDK5; at 10 µM; active compounds read low

Measured: percent of control binding

Chain of Mitogen-activated protein kinase 3 (Homo sapiens) (P27361 whole entry, looked up): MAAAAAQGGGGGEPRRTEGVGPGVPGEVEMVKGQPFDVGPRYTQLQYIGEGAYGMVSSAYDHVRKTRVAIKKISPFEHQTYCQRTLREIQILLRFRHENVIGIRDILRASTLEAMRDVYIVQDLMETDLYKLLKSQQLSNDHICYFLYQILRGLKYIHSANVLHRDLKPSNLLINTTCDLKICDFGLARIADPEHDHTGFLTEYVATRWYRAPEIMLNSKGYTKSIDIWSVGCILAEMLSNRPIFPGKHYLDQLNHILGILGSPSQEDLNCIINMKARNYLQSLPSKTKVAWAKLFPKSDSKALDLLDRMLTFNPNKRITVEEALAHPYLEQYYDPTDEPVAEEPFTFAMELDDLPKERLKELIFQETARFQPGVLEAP
Chain of Tyrosine-protein kinase Lyn (Homo sapiens) (P07948 whole entry, looked up): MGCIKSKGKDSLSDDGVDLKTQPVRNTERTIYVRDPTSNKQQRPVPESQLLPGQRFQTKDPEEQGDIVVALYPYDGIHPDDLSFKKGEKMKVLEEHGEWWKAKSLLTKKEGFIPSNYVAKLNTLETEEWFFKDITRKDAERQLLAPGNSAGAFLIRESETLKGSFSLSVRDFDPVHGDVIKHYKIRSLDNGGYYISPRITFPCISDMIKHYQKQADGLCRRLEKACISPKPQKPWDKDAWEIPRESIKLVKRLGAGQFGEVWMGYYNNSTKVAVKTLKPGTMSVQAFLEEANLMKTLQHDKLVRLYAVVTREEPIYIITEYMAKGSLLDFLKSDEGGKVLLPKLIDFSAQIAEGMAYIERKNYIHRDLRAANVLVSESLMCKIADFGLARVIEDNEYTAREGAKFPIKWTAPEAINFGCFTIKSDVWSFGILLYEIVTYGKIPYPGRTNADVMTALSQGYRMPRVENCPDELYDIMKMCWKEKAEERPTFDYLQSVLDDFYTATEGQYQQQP
Chain of cGMP-dependent protein kinase 1 (Homo sapiens) (Q13976 whole entry, looked up): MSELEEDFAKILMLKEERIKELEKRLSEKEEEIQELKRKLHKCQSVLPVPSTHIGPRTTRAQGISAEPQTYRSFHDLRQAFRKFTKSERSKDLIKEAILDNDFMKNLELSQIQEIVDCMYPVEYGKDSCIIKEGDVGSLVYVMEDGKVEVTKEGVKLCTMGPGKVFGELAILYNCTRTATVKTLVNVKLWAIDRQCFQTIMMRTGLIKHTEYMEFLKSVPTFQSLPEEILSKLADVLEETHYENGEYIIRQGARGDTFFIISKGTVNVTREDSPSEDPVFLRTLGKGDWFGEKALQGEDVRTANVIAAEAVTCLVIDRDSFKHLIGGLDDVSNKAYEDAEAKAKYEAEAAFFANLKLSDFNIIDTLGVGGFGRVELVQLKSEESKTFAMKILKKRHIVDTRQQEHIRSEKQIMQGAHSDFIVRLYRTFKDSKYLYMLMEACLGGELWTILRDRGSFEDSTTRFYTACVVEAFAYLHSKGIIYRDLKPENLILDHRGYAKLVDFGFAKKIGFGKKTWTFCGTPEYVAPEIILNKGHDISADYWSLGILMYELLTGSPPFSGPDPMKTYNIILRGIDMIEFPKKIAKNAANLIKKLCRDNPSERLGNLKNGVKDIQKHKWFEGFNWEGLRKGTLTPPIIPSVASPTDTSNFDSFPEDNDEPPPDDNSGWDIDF
Chain of Mitogen-activated protein kinase kinase kinase 20 (Homo sapiens) (Q9NYL2 whole entry, looked up): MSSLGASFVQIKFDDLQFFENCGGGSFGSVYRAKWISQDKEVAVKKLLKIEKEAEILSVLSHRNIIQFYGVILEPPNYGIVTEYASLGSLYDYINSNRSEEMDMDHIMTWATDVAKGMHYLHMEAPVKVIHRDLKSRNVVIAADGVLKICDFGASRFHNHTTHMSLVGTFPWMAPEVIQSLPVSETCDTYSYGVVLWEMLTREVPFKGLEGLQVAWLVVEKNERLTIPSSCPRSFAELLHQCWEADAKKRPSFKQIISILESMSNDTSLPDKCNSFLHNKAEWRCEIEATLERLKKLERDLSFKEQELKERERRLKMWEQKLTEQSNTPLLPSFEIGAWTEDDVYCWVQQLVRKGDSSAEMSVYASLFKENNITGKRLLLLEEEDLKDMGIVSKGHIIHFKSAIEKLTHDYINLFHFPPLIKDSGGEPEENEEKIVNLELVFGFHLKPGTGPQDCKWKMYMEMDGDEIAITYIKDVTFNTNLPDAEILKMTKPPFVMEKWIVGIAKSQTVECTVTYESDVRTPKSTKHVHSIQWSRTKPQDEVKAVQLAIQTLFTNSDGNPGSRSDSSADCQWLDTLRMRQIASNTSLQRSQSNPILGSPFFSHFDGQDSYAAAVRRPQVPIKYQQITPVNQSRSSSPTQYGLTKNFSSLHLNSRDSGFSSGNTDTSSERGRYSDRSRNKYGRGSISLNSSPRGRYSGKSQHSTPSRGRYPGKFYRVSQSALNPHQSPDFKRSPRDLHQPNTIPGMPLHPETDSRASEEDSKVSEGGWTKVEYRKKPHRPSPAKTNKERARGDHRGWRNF
Chain of Ephrin type-A receptor 2 (Homo sapiens) (P29317 whole entry, looked up): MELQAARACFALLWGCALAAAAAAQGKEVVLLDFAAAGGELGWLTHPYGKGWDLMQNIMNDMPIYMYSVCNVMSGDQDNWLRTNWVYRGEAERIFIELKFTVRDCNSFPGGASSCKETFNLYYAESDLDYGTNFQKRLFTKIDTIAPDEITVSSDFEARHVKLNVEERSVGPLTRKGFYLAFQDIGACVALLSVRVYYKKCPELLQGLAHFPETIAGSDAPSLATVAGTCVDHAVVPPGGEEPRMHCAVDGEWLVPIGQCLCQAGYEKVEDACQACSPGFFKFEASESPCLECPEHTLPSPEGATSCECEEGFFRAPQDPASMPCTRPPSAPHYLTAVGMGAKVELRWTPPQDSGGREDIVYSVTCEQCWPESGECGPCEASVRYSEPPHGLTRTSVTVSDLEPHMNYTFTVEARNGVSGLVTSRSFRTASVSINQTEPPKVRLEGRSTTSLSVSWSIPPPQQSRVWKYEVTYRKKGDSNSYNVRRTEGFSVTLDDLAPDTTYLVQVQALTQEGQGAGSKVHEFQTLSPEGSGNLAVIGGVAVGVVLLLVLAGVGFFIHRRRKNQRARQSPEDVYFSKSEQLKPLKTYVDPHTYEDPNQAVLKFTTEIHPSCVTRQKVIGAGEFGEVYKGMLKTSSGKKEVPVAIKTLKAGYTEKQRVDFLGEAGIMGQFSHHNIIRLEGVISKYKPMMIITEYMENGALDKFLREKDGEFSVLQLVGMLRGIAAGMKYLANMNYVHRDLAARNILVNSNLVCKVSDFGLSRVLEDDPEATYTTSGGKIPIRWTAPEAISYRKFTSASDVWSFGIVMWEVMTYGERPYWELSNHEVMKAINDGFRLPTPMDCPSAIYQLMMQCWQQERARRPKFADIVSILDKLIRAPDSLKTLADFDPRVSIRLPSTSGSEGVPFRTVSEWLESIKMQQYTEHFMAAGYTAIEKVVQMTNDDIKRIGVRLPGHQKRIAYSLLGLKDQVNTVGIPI
Chain of Cyclin-dependent kinase 5 (Homo sapiens) (Q00535 whole entry, looked up): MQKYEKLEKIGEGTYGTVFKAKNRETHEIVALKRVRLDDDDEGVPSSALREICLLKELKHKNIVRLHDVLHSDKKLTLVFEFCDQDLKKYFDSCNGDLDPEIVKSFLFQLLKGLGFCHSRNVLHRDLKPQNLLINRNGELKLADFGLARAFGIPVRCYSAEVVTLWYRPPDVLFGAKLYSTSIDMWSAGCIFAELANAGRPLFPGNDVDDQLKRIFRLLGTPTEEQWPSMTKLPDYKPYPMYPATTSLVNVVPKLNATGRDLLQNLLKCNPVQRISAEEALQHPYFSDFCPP

Cc1cc2nc(NCCCO)n(CC(=O)c3cc(C(C)(C)C)c(O)c(C(C)(C)C)c3)c2cc1C
inactive: BIKE 98% | ACVR2A 88% | [1] 88% | MARK1 100% | [2] 93% | [3] 100% | MYLK2 97% | [4] 94% | [5] 100% | [6] 76%
